The compounds below were run against T1, human type 1 glycine transporter (GlyT1) (Homo sapiens, UniProt P48067) (assay: Glycine uptake inhibition experiment ([3H]glycine uptake)). Settings: GlyT1.
T1 construct: T98G cells (glioma cells) expressing human type 1 glycine transporter (GlyT1) were used
T1 sequence (P48067 1-706): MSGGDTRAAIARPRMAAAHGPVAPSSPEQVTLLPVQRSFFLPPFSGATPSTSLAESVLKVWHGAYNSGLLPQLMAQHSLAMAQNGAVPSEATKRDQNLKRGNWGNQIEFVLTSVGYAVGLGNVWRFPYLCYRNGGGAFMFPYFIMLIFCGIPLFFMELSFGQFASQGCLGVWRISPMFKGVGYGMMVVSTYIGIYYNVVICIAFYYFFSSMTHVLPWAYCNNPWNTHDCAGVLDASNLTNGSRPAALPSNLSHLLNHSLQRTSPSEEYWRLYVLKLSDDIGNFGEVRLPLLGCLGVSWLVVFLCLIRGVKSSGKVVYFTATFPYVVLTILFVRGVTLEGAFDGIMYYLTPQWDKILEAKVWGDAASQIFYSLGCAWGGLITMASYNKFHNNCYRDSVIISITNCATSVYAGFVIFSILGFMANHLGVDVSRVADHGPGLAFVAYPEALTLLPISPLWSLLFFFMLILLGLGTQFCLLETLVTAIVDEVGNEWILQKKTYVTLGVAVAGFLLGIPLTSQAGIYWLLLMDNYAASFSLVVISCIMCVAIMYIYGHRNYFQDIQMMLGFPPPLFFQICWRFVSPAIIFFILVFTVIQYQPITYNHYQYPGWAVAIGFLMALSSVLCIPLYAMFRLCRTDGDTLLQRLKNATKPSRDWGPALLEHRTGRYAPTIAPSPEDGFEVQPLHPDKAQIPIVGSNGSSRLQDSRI
Assay type: cell-based
In short: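 T98G glioma cells expressing human GlyT1 were pretreated 10 min with compound in HEPES buffer pH 7.4 (0.2% BSA), then incubated with compound plus 250 nM final [3H]glycine for 15 min at room temperature. Intracellular radioactivity was counted after NaOH lysis; 10 μM ALX5407 defined non-specific uptake. IC50 came from 10^−9–10^−5 M curves.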

| Compound | IC50 [nM] |
| --- | --- |
| O=C(NC(c1cccc(Cl)n1)C1(O)CCCCC1)c1nccc(C(F)(F)F)c1Cl (single isomer, unassigned) [Compound 384, 3-chloro-N-[(6-chloropyridin-2-yl)(1-hydroxycyclohexyl)methyl]-4-(trifluoromethyl)pyridine-2-carboxamide] | 9.4 |
| O=C(NC(c1cccc(Cl)n1)C1(O)CCCCC1)c1ccnc(C(F)(F)F)c1Cl (single isomer, unassigned) [Compound 385, 3-chloro-N-[(6-chloropyridin-2-yl)(1-hydroxycyclohexyl)methyl]-2-(trifluoromethyl)pyridine-4-carboxamide] | 26 |
| CS(=O)(=O)c1ccc(C(F)(F)F)cc1C(=O)NC(c1ccccc1Cl)C1(O)CCC(F)(F)CC1 (single isomer, unassigned) [Compound 395, N-[(2-chlorophenyl)(4,4-difluoro-1-hydroxycyclohexyl)methyl]-2-(methylsulfonyl)-5-(trifluoromethyl)benzamide] | 330 |

Other lines, results leading:

| IC50 [nM] | Compound |
| --- | --- |
| 1200 | O=C(NC(c1cccc(F)c1Cl)[C@]1(O)CC[C@@H](F)CC1)c1cc(C(F)(F)F)ccc1-n1nccn1 (single isomer, unassigned) [Compound 381, N-[-(2-chloro-3-fluorophenyl)(cis-4-fluoro-1-hydroxycyclohexyl)methyl]-2-(2H-1,2,3-triazol-2-yl)-5-(trifluoromethyl)benzamide] |
| 740 | CN(C(=O)c1nccc(C(F)(F)F)c1Cl)C(c1cccc(F)c1Cl)[C@]1(O)CC[C@@H](F)CC1 (single isomer, unassigned) [Compound 382, 3-chloro-N-[(2-chloro-3-fluorophenyl)(cis-4-fluoro-1-hydroxycyclohexyl)methyl]-N-methyl-4-(trifluoromethyl)pyridine-2-carboxamide] |
| 35 | CS(=O)(=O)c1cnc(C(F)(F)F)cc1C(=O)NC(c1cccc(F)c1Cl)[C@]1(O)CC[C@@H](F)CC1 (single isomer, unassigned) [Compound 386, N-[(2-chloro-3-fluorophenyl)(cis-4-fluoro-1-hydroxycyclohexyl)methyl]-5-(methylsulfonyl)-2-(trifluoromethyl)pyridine-4-carboxamide] |
| 36 | CS(=O)(=O)c1ncc(C(F)(F)F)cc1C(=O)NC(c1cccc(F)c1Cl)[C@]1(O)CC[C@@H](F)CC1 (single isomer, unassigned) [Compound 387, N-[(2-chloro-3-fluorophenyl)(cis-4-fluoro-1-hydroxycyclohexyl)methyl]-2-(methylsulfonyl)-5-(trifluoromethyl)pyridine-3-carboxamide] |
| 260 | CS(=O)(=O)c1nc(C(F)(F)F)ccc1C(=O)NC(c1cccc(F)c1Cl)[C@]1(O)CC[C@@H](F)CC1 (single isomer, unassigned) [Compound 388, N-[(2-chloro-3-fluorophenyl)(cis-4-fluoro-1-hydroxycyclohexyl)methyl]-2-(methylsulfonyl)-6-(trifluoromethyl)pyridine-3-carboxamide] |
| 1800 | CS(=O)(=O)c1cc(C(F)(F)F)cnc1C(=O)NC(c1cccc(F)c1Cl)[C@]1(O)CC[C@@H](F)CC1 (single isomer, unassigned) [Compound 389, N-[(2-chloro-3-fluorophenyl)(cis-4-fluoro-1-hydroxycyclohexyl)methyl]-3-(methylsulfonyl)-5-(trifluoromethyl)pyridine-2-carboxamide] |
| 130 | O=C(NC(c1cccc(F)c1Cl)[C@]1(O)CC[C@@H](F)CC1)c1ccc(C(F)(F)F)cc1-n1cccn1 (single isomer, unassigned) [Compound 390, N-[(2-chloro-3-fluorophenyl)(cis-4-fluoro-1-hydroxycyclohexyl)methyl]-2-(1H-pyrazol-1-yl)-4-(trifluoromethyl)benzamide] |
| 27 | O=C(NC(c1cccc(F)c1Cl)[C@]1(O)CC[C@@H](F)CC1)c1ccc(C(F)(F)F)cc1-n1cnnn1 (single isomer, unassigned) [Compound 391, N-[(2-chloro-3-fluorophenyl)(cis-4-fluoro-1-hydroxycyclohexyl)methyl]-2-(1H-tetrazol-1-yl)-4-(trifluoromethyl)benzamide] |
| 110 | O=C(NC(c1cccc(F)c1Cl)[C@]1(O)CC[C@@H](F)CC1)c1ncc(C(F)(F)F)cc1-n1nccn1 (single isomer, unassigned) [Compound 392, N-[(2-chloro-3-fluorophenyl)(cis-4-fluoro-1-hydroxycyclohexyl)methyl]-3-(2H-1,2,3-triazol-2-yl)-5-(trifluoromethyl)pyridine-2-carboxamide] |
| 40 | O=C(NC(c1cccc(F)c1Cl)[C@]1(O)CC[C@@H](F)CC1)c1ccc(C(F)(F)F)nc1-n1nccn1 (single isomer, unassigned) [Compound 393, N-[(2-chloro-3-fluorophenyl)(cis-4-fluoro-1-hydroxycyclohexyl)methyl]-2-(2H-1,2,3-triazol-2-yl)-6-(trifluoromethyl)pyridine-3-carboxamide] |
| 1300 | O=C(NC(c1cccc(F)c1Cl)[C@]1(O)CC[C@@H](F)CC1)c1ccc(C(F)(F)F)nc1-n1ccnn1 (single isomer, unassigned) [Compound 394, N-[(2-chloro-3-fluorophenyl)(cis-4-fluoro-1-hydroxycyclohexyl)methyl]-2-(1H-1,2,3-triazol-1-yl)-6-(trifluoromethyl)pyridine-3-carboxamide] |
| 290 | CS(=O)(=O)c1ccc(C(F)(F)F)cc1C(=O)NC(c1cc(Cl)ccn1)[C@]1(O)CC[C@@H](F)CC1 (single isomer, unassigned) [Compound 396, N-[(4-chloropyridin-2-yl)(cis-4-fluoro-1-hydroxycyclohexyl]methyl]-2-(methylsulfonyl)-5-(trifluoromethyl)benzamide] |

Same assay, conditions: human GlyT1

| IC50 [nM] | Compound |
| --- | --- |
| 16 | O=C(NC(c1cccc(Cl)n1)C1(O)CCCC1)c1nccc(C(F)(F)F)c1Cl (single isomer, unassigned) [Compound 397, 3-chloro-N-[(6-chloropyridin-2-yl)(1-hydroxycyclopentyl)methyl]-4-(trifluoromethyl)pyridine-2-carboxamide] |
| 7500 | O=C(NC(c1cccc(Cl)n1)C1(O)CCCC1)c1nccc(C(F)(F)F)c1Cl (single isomer, unassigned) [Compound 398, 3-chloro-N-[(6-chloropyridin-2-yl)(1-hydroxycyclopentyl)methyl]-4-(trifluoromethyl)pyridine-2-carboxamide] |
| 230 | O=C(NC(c1cccc(F)c1)C1(O)CCC(F)(F)CC1)c1ccnc(C(F)(F)F)c1Cl (single isomer, unassigned) [Compound 400, 3-chloro-N-[(4,4-difluoro-1-hydroxycyclohexyl)(3-fluorophenyl)methyl]-2-(trifluoromethyl)pyridine-4-carboxamide] |
| 230 | CS(=O)(=O)c1cc(C(F)(F)F)ccc1C(=O)NC(c1cccc(F)c1Cl)C1(O)CCC(F)(F)CC1 (single isomer, unassigned) [Compound 401, N-[(2-chloro-3-fluorophenyl)(4,4-difluoro-1-hydroxycyclohexyl)methyl]-2-(methylsulfonyl)-4-(trifluoromethyl)benzamide] |
| 450 | CS(=O)(=O)c1cc(C(F)(F)F)ccc1C(=O)NC(c1cccc(Cl)c1F)C1(O)CCC(F)(F)CC1 (single isomer, unassigned) [Compound 402, N-[(3-chloro-2-fluorophenyl)(4,4-difluoro-1-hydroxycyclohexyl)methyl]-2-(methylsulfonyl)-4-(trifluoromethyl)benzamide] |
| 120 | CS(=O)(=O)c1cnc(C(F)(F)F)cc1C(=O)NC(c1ccccc1Cl)C1(O)CCC(F)(F)CC1 (single isomer, unassigned) [Compound 403, N-[(2-chlorophenyl)(4,4-difluoro-1-hydroxycyclohexyl)methyl]-5-(methylsulfonyl)-2-(trifluoromethyl)pyridine-4-carboxamide] |
| 170 | CS(=O)(=O)c1ncc(C(F)(F)F)cc1C(=O)NC(c1ccccc1Cl)C1(O)CCC(F)(F)CC1 (single isomer, unassigned) [Compound 404, N-[(2-chlorophenyl)(4,4-difluoro-1-hydroxycyclohexyl)methyl]-2-(methylsulfonyl)-5-(trifluoromethyl)pyridine-3-carboxamide] |
| 200 | CS(=O)(=O)c1cc(C(F)(F)F)ccc1C(=O)NC(c1ccccc1Cl)C1(O)CCC(F)(F)CC1 (single isomer, unassigned) [Compound 405, N-[(2-chlorophenyl)(4,4-difluoro-1-hydroxycyclohexyl)methyl]-2-(methylsulfonyl)-4-(trifluoromethyl)benzamide] |
| 320 | CS(=O)(=O)c1nc(C(F)(F)F)ccc1C(=O)NC(c1ccccc1Cl)C1(O)CCC(F)(F)CC1 (single isomer, unassigned) [Compound 406, N-[(2-chlorophenyl)(4,4-difluoro-1-hydroxycyclohexyl)methyl]-2-(methylsulfonyl)-6-(trifluoromethyl)pyridine-3-carboxamide] |
